Data as given in patent US6846640B2, “Time-resolved fluorescence assay for the detection of multimeric forms of A-beta 1-40” (Pharmacia & Upjohn Company, priority 2002, dated 2005).

How the values were obtained:
β amyloid = β amyloid (Homo sapiens, UniProt P05067); assay: β-amyloid aggregation ELISA protocol (Howlett et al.); type: biochemical; settings: Aβ incubated overnight, 6E10 antibody
Experimental: For the β-amyloid aggregation ELISA protocol (Howlett et al., supra), 96 uL diluted β amyloid solution (51 μg/ml) is added to a 96-well polystyrene plate in the presence of and absence of 2 μL of an aggregation inhibitor test compound diluted in DMSO. The Aβ is incubated overnight to allow for aggregation and an aliquot transferred to another 96-well polystyrene plate, precoated with anti-Aβ antibody (6E10, Senetek, Napa, Calif.) overnight, washed, and blocked with Dulbecco's PBS/1% BSA solution. […] The secondary, biotinylated antibody was bound with 200 μL Eu^3+-streptavidin (100 ng/ml) in DELFIA assay buffer, the excess washed off, and the plate developed in DELFIA enhancement solution and read on a TRF plate reader as outlined above.

β-amyloid 1-40 = biological target: T1, β-amyloid 1-40 (Homo sapiens, UniProt P05067); assay: TRF aggregation assay for β-amyloid polypeptide aggregation; type: biochemical; settings: 50 ug/ml β-amyloid, 24 uM test compound, 2% DMSO, 37° C. for 24 hrs
T1 construct: Beta-amyloid 1-40 (Aβ) and biotin-labeled β-amyloid 1-40 peptides were purchased from Biosource; purchased Biosource (Camarillo, Calif.)
T1 sequence (P05067 672-711 limits assumed): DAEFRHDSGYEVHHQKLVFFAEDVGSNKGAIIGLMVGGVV
Experimental: Beta-amyloid 1-40 (Aβ) and biotin-labeled β-amyloid 1-40 peptides were purchased from Biosource (Camarillo, Calif.). β-amyloid and biotinylated amyloid stock solutions, diluted in 0.1% acetic acid and corrected for 80% peptide content, were diluted to 83 μg/ml and 42 μg/ml, respectively, in reaction buffer (Dulbecco's PBS pH 7.4, 0.02% Tween 20). An equal mixture of the two β-amyloid products was then brought to a final concentration of 62.5 μg/ml total β-amyloid, giving a final 2:1 ratio of unbiotinylated to biotinylated Aβ polypeptide. When analyzing aggregation in the presence of test compound, 5 ul of diluted test compound (120 uM in 10% DMSO) was added to each well being analyzed in a 384-well polystyrene plate (Nunc). Test compounds are added over a range of concentrations. Twenty microliters of the β-amyloid reaction mixture was dispensed into each well of the 384 well plate, giving the final assay conditions as 24 uM test compound, 2% DMSO, and 50 ug/ml β-amyloid in a final volume of 25 uL. Plates were then sealed with foil sealers (Corning), and incubated at 37° C. for 24 hrs. […] Plates were washed with reaction buffer and 75 uL of DELFIA Enhancement solution (Wallac) was added to each well and the plates read on TRF capable plate reader (excitation at 337 run and emission at 620 nm).

Sequence of β amyloid (P05067 672-711 limits assumed): as above

Compound | inhibition of Aβ aggregation (β amyloid) [%] | prevents Aβ aggregation (β-amyloid 1-40) [%]
CO[C@H]1/C=C/O[C@@]2(C)Oc3c(C)c(O)c4c(O)c(c(/C=N/N5CCN(C)CC5)c(O)c4c3C2=O)NC(=O)/C(C)=C\C=C\[C@H](C)[C@H](O)[C@@H](C)[C@@H](O)[C@@H](C)[C@H](OC(C)=O)[C@@H]1C [rifampicin] | ~30 | 
QKLVFF [QKLVFF peptide] |  | 44
